Data on four compounds can be found in US9408793B2, “Selective compounds inhibiting CYP26A1 useful in cosmetic and pharmaceutical compositions” (GALDERMA RESEARCH & DEVELOPMENT, priority 2012, dated 2016).

The test system of one assay is stratum corneum. Put plainly: Measurement of the thickness of the stratum corneum in Fuzzy rats. It is filed as in vivo, rat. The note with it: for Thickness of the stratum corneum (μm) / Thickness of the stratum corneum relative to the carrier: male Fuzzy rats, topical, 24 days after the treatment. The method, then:
Male Fuzzy rats are separated into four batches each comprising five rats. A topical treatment is carried out on each batch by administering, respectively, a carrier acting as a control, a dose of 0.000001% of retinol, a dose of 0.1% of retinol and a dose of 0.3% of a compound according to the invention corresponding to Example 1.
24 days after the treatment, the rats are euthanized and a 10 μm section of skin is sampled in order to perform a biopsy. A 1M NaOH solution is added to each section in order to soften the stratum corneum. The photos under a microscope are taken in a time period of 2 minutes after the addition of the 1M NaOH solution.
The table below presents the results on the thickness of the stratum corneum for the various batches.

In another assay the target is T1, human CYP26B1 enzyme (Homo sapiens, UniProt Q9NR63).
T1 construct: expressed in transfected cells; host or cells: HeLa cells
T1 sequence (Q9NR63 1-512): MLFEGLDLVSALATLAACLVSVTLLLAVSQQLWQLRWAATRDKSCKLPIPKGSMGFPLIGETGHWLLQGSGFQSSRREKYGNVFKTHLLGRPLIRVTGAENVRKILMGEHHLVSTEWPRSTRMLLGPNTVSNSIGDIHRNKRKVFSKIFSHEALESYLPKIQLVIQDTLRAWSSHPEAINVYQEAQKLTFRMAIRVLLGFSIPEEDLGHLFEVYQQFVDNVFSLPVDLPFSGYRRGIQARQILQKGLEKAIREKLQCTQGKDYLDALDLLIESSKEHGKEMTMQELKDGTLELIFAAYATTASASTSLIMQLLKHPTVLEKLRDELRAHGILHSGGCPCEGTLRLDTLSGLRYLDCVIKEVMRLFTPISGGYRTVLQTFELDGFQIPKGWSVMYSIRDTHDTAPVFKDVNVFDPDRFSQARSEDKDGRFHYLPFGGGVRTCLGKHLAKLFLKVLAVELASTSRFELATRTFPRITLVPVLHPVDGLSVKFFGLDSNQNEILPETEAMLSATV
Put plainly: Cell test, HeLa cells overexpressing human CYP26B1, metabolism of radiolabelled retinoic acid (3H-RA). It is filed as cell-based. The note with it: 3 h incubation with 3H-RA, mean of two experiments. The method, then: (§1) A cell test using HeLa cells overexpressing either the human CYP26A1 enzyme or the human CYP26B1 enzyme, similar to that described in White et al.(Proc Natl Acad Sci U S A. 2000 Jun 6; 97(12): 6403-8), was used. […] After the incubation time of 3 h, the reaction was stopped and an extraction phase was carried out in order to separate the aqueous and organic layers. The amount of radioactivity present in the aqueous layer was then measured as an indicator of the amount of RA which was metabolized.
A first experiment using 3 different concentrations of compounds according to the invention (0.1, 1 and 10 μM) was carried out in order to evaluate the inhibitory activity of the compounds. A second test was then carried out with a wide range of concentrations (0.01, 0.1, 0.5, 1, 5 and 10 μM). The results obtained during these two tests are similar.
The following table lists the mean of the AC50 values obtained over these two experiments.

The target of a further assay is T2, human CYP26A1 enzyme (Homo sapiens, UniProt O43174).
T2 construct: expressed in transfected cells; host or cells: HeLa cells
T2 sequence (O43174 1-497): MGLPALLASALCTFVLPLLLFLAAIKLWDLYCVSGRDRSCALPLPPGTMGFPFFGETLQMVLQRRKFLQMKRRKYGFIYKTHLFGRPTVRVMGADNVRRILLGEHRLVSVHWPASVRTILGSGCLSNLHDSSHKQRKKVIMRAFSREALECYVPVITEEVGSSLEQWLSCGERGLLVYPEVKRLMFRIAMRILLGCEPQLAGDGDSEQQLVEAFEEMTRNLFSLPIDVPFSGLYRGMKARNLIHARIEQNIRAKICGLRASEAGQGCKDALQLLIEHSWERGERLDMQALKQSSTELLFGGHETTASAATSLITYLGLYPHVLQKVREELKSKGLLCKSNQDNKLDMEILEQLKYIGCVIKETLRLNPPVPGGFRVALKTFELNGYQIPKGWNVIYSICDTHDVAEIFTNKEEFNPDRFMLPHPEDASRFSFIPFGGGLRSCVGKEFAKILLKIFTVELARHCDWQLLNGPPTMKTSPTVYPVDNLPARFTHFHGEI
Put plainly: Cell test, HeLa cells overexpressing human CYP26A1, metabolism of radiolabelled retinoic acid (3H-RA). It is filed as cell-based. The note with it: for Isoform activity in words: CYP26A1 versus CYP26B1, HeLa cell test; for AC50: HeLa cells overexpressing human CYP26A1, 3 h incubation with 3H-RA, mean of two experiments; for CYP26B1/CYP26A1 (selectivity ratio of mean AC50): ratio of AC50 CYP26B1 to AC50 CYP26A1. The method, then:
as §1
A first experiment using 3 different concentrations of compounds according to the invention (0.1, 1 and 10 μM) was carried out in order to evaluate the inhibitory activity of the compounds. A second test was then carried out with a wide range of concentrations (0.01, 0.1, 0.5, 1, 5 and 10 μM).

A further assay addresses T3, CYP26B1 isoform (Homo sapiens, UniProt Q9NR63).
T3 sequence (Q9NR63 1-512): T1 sequence (Q9NR63 1-512)
The note with it: background statement; cited from earlier work.

`CC1=C(/C=C/C(C)=C/C=C/C(C)=C/CO)C(C)(C)CCC1` [Retinol]: in the assay with stratum corneum (dose 0.000001%), the “Thickness of the stratum corneum (μm)” value worked out at 41.60 μm and the “Thickness of the stratum corneum relative to the carrier” value is 0.98. Moreover, in the assay with stratum corneum (dose 0.1%), the “Thickness of the stratum corneum (μm)” value stood at 26.24 μm and the “Thickness of the stratum corneum relative to the carrier” value was determined as 0.62.
With `Clc1cccc(C(c2ccc3[nH]cnc3c2)n2ccnc2)c1` (centres unmarked) [Liarozole], the half-maximal activity concentration (AC50) at human CYP26B1 enzyme amounted to 320 nM. On human CYP26A1 enzyme, the “Isoform activity in words” value is reported as “more active on CYP26B1 than on CYP26A1”.
Turning to `CCC(CC)C(c1ccc(Nc2nc3ccccc3s2)cc1)n1cncn1` (centres unmarked) [Rambazole], on human CYP26B1 enzyme, the AC50 came out at 64 nM. On CYP26B1 isoform, the “Activity on the CYP26B1 isoform” value was “about 62 nM”. On human CYP26A1 enzyme, the “Isoform activity in words” value is recorded as “active on the inhibition of the activity of the two isoforms”, the activity was half-maximal at 4 nM (AC50) and the “CYP26B1/CYP26A1 (selectivity ratio of mean AC50)” value was determined as 16.82.
Consider `CC1(C)CCC(C)(C)c2cc(S(=O)(=O)CCc3ccc(C(=O)O)cc3)ccc21` [Compound 1, 4-[2-(5,5,8,8-Tetramethyl-5,6,7,8-tetrahydronaphthalene-2-sulphonyl)ethyl]benzoic acid], for which, at human CYP26B1 enzyme, the activity was half-maximal at 50300 nM (AC50). For the same compound, in the assay on stratum corneum (dose 0.3%), the “Thickness of the stratum corneum (μm)” value amounted to 24.07 μm and the “Thickness of the stratum corneum relative to the carrier” value is recorded as 0.57. In addition, the “Photographs of the keratinous layer (FIGS. 2 and 3), result in words” value in the assay with stratum corneum (rats treated with 0.3% versus carrier) is recorded as “decrease in the thickness of the stratum corneum”. On human CYP26A1 enzyme, half-maximal activity (AC50) was put at 190 nM and the “CYP26B1/CYP26A1 (selectivity ratio of mean AC50)” value was determined as 261.50.

As a reminder, the AC50 is the concentration giving half of the maximal activity seen.
